# Reference: paper PMC12560828, “Chemical structure drives developmental toxicity of alkyl-substituted naphthalenes in zebrafish” (Environment international, 2025)
# Legend:
# [1] = tested on: zebrafish embryos, gene expression at 48 hpf; experiment: Targeted transcriptomics (TempO-Seq S1500+ zebrafish panel), differential expression; type: in vivo, Danio rerio; conditions: 20 μM
# Experimental: Targeted transcriptomics were performed using the Biospyder™ TempO-Seq™ 96-well plate platform. This platform used detector oligos for a gene set of 3112 probes selected through data driven approaches and expert curation ([Balik-Meisner et al., 2019]). The targeted transcriptomics approach was selected to maximize the number of chemicals that could be included in the analysis while managing cost and data analysis requirements. Targeted transcriptomics were limited to 96 samples, three chemicals without morphological effects were excluded from the analysis to ensure n = 4 per chemical and n = 6 controls, excluded chemicals are indicated in SI-T3.
# A single exposure concentration of 20 μM was chosen as the maximum possible concentration to elicit a biological response that also ensured enough viable animals for RNA collection for every chemical. The same concentration per chemical was chosen as opposed to a phenotypically anchored concentration due to variability in 48 hpf survival across chemicals at the same 120 hpf percent effect and to allow for a direct comparison of chemical potency and transcriptomic response. 48 hpf was chosen to ensure the measurement of transcriptomic responses prior to the emergence of observable phenotypic effects. This timepoint has been used extensively and enhanced the ability to compare our results across datasets. Exposure was conducted over two days, chemicals were split into day groups by numerical order of randomly generated internal labels, 11 chemicals and control each day, n = 48 embryos across six vials per treatment. Exposure was conducted as previously described in section 2.3. At 48 hpf embryos were collected for RNA extraction. Embryos from two exposure vials were kept for morphological effect assessments which were as expected based on screening results. From the remaining wells, six phenotypically normal embryos were collected and pooled in their vial groups into 1.5 mL Eppendorf tubes, placed on ice (~30 sec), excess medium was removed, placed back on ice (~30 sec), and 200 μL RNA shield was added. […] of n = 6 pooled embryos were collected from each treatment.
# RNA was extracted from exposure groups on day one and day two. 100 μL of lysis buffer was added to each tube containing pooled embryo samples and 200 μL of RNA shield, the full contents of the tube were then transferred to the homogenization plate (2 mL deep 96-well plate pre-filled with 400 μL 1 mm zirconium beads and 500 μL of lysis buffer). The plate was homogenized for 1.5 min using the Mini-BeadBeater 96 (BioSpec Products, Bartlesville, OK, United States) and centrifuged for five min at 3000 rcf. 550 μL of the supernatant was distributed over two plates, each pre-filled with 275 μL of ethanol. RNA extraction was performed using the KingFisher Apex System (ThermoFisher Scientific, Waltham, MA, United States) and Quick-RNA Magbead kit (Zymo Research Corporation, Irvine, CA, Untied States). Briefly, this automated process uses Mag beads to collect RNA from the sample, after a series of washes and treatment with DNase the RNA is eluted in 50 μL of ultra-pure water. RNA quality was assessed using the 4150 TapeStation System (Agilent, Santa Clara, CA, United States). All samples used had RNA integrity number (RIN) scores >9.8. RNA concentration was determined using Quant-iT RNA Reagent and assay kit and Varioskan ALF multi-mode plate reader (ThermoFisher Scientific, Waltham, MA, United States) in duplicate, samples with high variability (coefficient of variance (CV) > 10) between reads were repeated in triplicate. The average of the quantification reads was used for RNA concentration normalization. […] All 94 samples were normalized using ultra-pure water to the lowest concentration sample − 14.9 ng/μL. […]
# [2] = Body burden measurement (GC-MS/MS) and concentration uptake ratio, vial exposure; type: in vivo, Danio rerio; conditions: zebrafish (Danio rerio), whole embryos (32 pooled, ethyl acetate extract), other: waterborne exposure of embryos in sealed vials, 20 μM exposure, 32 pooled embryos, 0.5 mL extract, single replicates, read-out: measured concentration in embryo extract
# Experimental: Body burden was measured for exposure to five chemicals at two timepoints: 24 and 48 hpf. […] The exposure concentration was chosen as it was the maximum possible concentration that ensured enough viable animals for collection at 48 hpf and allowed direct comparison of chemical uptake at the same exposure concentration.
# Chemicals were exposed at 20 μM following the exposure procedure detailed in section 1.3, 24 vials per chemical. At 24 hpf, embryos were pooled in groups of 32 embryos (combining embryos from 4 vials) into 1.5 mL polypropylene RINO-safe lock tubes (n = 3 per chemical treatment, n = 3 per control). Tubes were briefly placed on ice to reduce embryo movement (<1 min); the remaining medium was removed; the tube was then flash frozen in liquid nitrogen and stored at −20 °C until extraction. Embryos in the remaining vials were plated as previously described in section 1.3 until collection at 48 hpf following the same procedure as 24 hpf collections (n = 3 per chemical treatment, n = 1 control).
# Tissue extraction was performed as previously reported ([Rude et al., 2025]). Each sample was spiked with 25 μL internal standard in ethyl acetate and 100 μL of 1 mm glass beads (Next Advance, Troy, NY United States) were added to the RINO-safe lock tubes containing thawed tissue samples and left on ice for 10 min 250 mg of Na2SO4 and 200 μL of ethyl acetate were added to each tube and vortexed. Tubes were homogenized at speed 8 for 6 min in a Bullet Blender (Next Advance, Troy, NY, United States). 300 μL of ethyl acetate was added to each tube and the homogenization step was repeated until no pieces of non-homogenized fish tissue remained. Samples were then centrifuged for 10 min at 4 °C, 1600g. Sample supernatant (0.5 mL) was collected into amber vials and stored at 4 °C until chemical analysis.
# Samples were analyzed for quantitation and identification of 161 PAHs. The method was performed with an Agilent 7890 gas chromatograph (GC), with a 7000C triple quadrupole mass spectrometer (MS/MS) using an Agilent J&W PAH select (30 m × 250 μm × 0.15 μm GC column). Calibration for each analyte utilized at least a 4-point (range: 4–7, median 6 points, n = 161) curve with R^2 ≥ 0.99. Specific instrument conditions were modified from [Anderson et al. (2015)] and are detailed in Table S3. GC–MS/MS data was analyzed using MassHunter Quantitative Analysis v.B.06.00 SP1 build 6.0.388.1 software (Agilent Corp. Wilmington,DE) ([Anderson et al., 2015]). Dynamic muti-reaction monitoring mode was used during analyses, and all PAHs were identified using analytical standards obtained from multiple sources (Table S1). Collison energies were optimized for each individual unsubstituted PAH, alkylation series (C1, C2, etc.), and when possible, specific alkylation group (i.e. methyl, ethyl, etc.).
# Body burden concentrations based on average embryo wet weight at each timepoint were determined by the equation below. Total measured chemical was calculated from ng/mL concentrations times sample volume (0.5 mL). Bodyburdennmol/mgbw=total measured chemicalnmol/number of fish32×average body weightmg
# Average body weights at 24 hpf and 48 hpf were assumed to be 0.31 mg and 0.26 mg, respectively as determined previously ([Rericha et al., 2024]). Statistical analysis to compare time points within chemicals was performed using a two-sided Student’s t-test (p-value ≤ 0.05). An ANOVA with a follow-up Dunn’s test was used to compare body burden between chemicals at 24 hpf (p-value ≤ 0.05). Body burden concentrations at 24 hpf were compared to the estimated percent effect of each measured chemical at the exposure concentration used for body burden analysis (20 μM). These estimates were made using the fitted concentration-response curves previously described in section 2.3.2.2.
# Concentration uptake ratios between vial exposures and 96-well plate exposures were compared using a two-sided Student’s t-test, p-values ≤ 0.05 were considered significant. […]
Structure (SMILES),nt5dc2 expression ([1]; result in words),"concentration at 24 hpf, 20 μM [2] [ng/mL]","concentration at 48 hpf, 20 μM [2] [ng/mL]","number of differentially expressed genes (DEGs) ([1]; p-value ≤ 0.05 and log2FC ≥ |1|, result in words)",logFC CCN1 ([1]; vs global control (SI-T13)),logFC FGFBP2B ([1]; vs global control (SI-T13)),logFC MFAP2 ([1]; vs global control (SI-T13)),logFC PDE6GB ([1]; vs global control (SI-T13)),logFC PLOD1A ([1]; vs global control (SI-T13))
CCc1ccc2ccccc2c1 [2-ethylnaphthalene],decreased expression,,,,,,,,
"Cc1cccc2c(C)cccc12 [1,5-dimethylnaphthalene]",,29200,9160,,,,,,
"Cc1ccc2ccc(C)cc2c1 [2,7-dimethylnaphthalene]",decreased expression,26500,8890,,,,,,
"Cc1cc(C)c2c(C)cccc2c1 [2,4,5-trimethylnaphthalene]",,9620,,,,,,,
"Cc1ccc2cccc(C)c2c1 [1,7-dimethylnaphthalene]",decreased expression,34600,11300,substantially more DEGs than the rest of the chemicals tested,-1.157,-1.676,-0.751,-0.7875,-3.2359
